# Experimental data as given in patent US11021448B2, “1,3-dihydro-1,4-benzodiazepine-2-thiones for the treatment of CNS related diseases” (priority 2016, dated 2021).
# Target: T1, hM1 (Homo sapiens, UniProt P11229)
# T1 construct: expressed in transfected cells; host or cells: CHO
# T1 sequence (P11229 1-460): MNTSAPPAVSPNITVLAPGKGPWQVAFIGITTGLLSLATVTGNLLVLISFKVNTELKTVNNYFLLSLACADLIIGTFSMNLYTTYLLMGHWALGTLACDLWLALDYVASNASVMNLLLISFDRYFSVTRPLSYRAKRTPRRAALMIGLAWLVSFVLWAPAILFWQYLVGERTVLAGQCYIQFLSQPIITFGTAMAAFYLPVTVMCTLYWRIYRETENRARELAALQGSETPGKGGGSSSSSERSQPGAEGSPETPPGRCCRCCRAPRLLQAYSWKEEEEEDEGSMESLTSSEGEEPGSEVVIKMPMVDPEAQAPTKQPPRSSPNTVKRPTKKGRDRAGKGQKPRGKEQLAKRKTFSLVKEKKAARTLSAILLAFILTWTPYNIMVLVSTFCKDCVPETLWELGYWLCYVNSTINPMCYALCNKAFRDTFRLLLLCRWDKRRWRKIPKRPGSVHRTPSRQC
# Assay: FLIPR intracellular calcium assay for modulator activity at the muscarinic M1 receptor in CHO human M1 cells
# Format: cell-based
# Conditions: not given
# Experimental: The assay study the effect of several concentrations of test compounds on basal or acetylcholine-stimulated Ca^2+ levels using FLIPR.
# The cell plate and the diluted compounds (1% DMSO final concentration) are placed on the platform of the FLIPR and the door closed. A signal test to check background fluorescence and basal fluorescence signal is performed. Laser intensity is adjusted if necessary. Two minutes preincubation with the diluted test compounds is provide to determine any agonist activity on the M1 receptor by comparison to 30 nM Acetylcholine control. In order to determine any modulator activity the diluted compounds were added to cells and after two minutes preincubation, the EC20 of acetylcholine is added followed by another two minutes preincubation before the measurement of intracellular Ca^2+ with a FLIPR (Molecular Devices).
SMILES,IC50 [nM],activity at M1 receptor
"COc1ccc2c(c1)C(c1ccccc1)=N[C@@H](C(C)C)C(=S)N2 [Example 40, (3S)-3-isopropyl-7-methoxy-5-phenyl-1,3-dihydro-1,4-benzodiazepine-2-thione]",559,
"CC(C)C[C@@H]1N=C(c2ccccc2)c2cc(Cl)ccc2NC1=S [Example 36, (S)-7-Chloro-3-isobutyl-5-phenyl-1,3-dihydro-benzo[e][1,4]diazepine-2-thione]",317,
"CC(C)C[C@@H]1N=C(c2ccccc2F)c2cc(Cl)ccc2NC1=S [Example 27, (3S)-7-Chloro-5-(2-fluorophenyl)-3-isobutyl-1,3-dihydro-1,4-benzodiazepine-2-thione]",641,
"CSCC[C@H]1N=C(c2ccccc2)c2cc(Cl)ccc2NC1=S [Example 9, (3R)-7-chloro-3-(2-methylsulfanylethyl)-5-phenyl-1,3-dihydro-1,4-benzodiazepine-2-thione]",504,
"Fc1ccccc1C1=N[C@H](C(F)(F)F)C(=S)Nc2ccc(Cl)cc21 [Example 11, (3R)-7-chloro-5-(2-fluorophenyl)-3-(trifluoromethyl)-1,3-dihydro-1,4-benzodiazepine-2-thione]",622,
"CC1N=C(c2ccccc2)c2ccccc2NC1=S (stereo not shown) [Example 41, 3-methyl-5-phenyl-1,3-dihydro-1,4-benzodiazepine-2-thione]",552,
"COC(C)C1N=C(c2ccccc2)c2cc(Cl)ccc2NC1=S (stereo not shown) [Example 38, 7-chloro-3-(1-methoxyethyl)-5-phenyl-1,3-dihydro-1,4-benzodiazepine-2-thione]",354,
"FC(F)(F)c1ccc2c(c1)C(C1CCCCC1)=NCC(=S)N2 [Example 20, 5-cyclohexyl-7-(trifluoromethyl)-1,3-dihydro-1,4-benzodiazepine-2-thione]",1950,
"S=C1Nc2ccc(Cl)cc2C(c2ccccc2)=N[C@H]1CC1CC1 [Example 3, (3S)-7-chloro-3-(cyclopropylmethyl)-5-phenyl-1,3-dihydro-1,4-benzodiazepine-2-thione]",311,
"CC(C)[C@@H]1N=C(c2ccccc2)c2cc(OC(F)(F)F)ccc2NC1=S [Example 25, (3S)-3-isopropyl-5-phenyl-7-(trifluoromethoxy)-1,3-dihydro-1,4-benzodiazepine-2-thione]",232,
"CC(C)[C@@H]1N=C(c2ccccc2)c2cc(Cl)ccc2NC1=S [Example 16, (3S)-7-chloro-3-isopropyl-5-phenyl-1,3-dihydro-1,4-benzodiazepine-2-thione]",70,
"CCC[C@@H]1N=C(c2ccccc2)c2cc(Cl)ccc2NC1=S [Example 7, (3S)-7-chloro-5-phenyl-3-propyl-1,3-dihydro-1,4-benzodiazepine-2-thione]",187,
"CCC[C@]1(C)N=C(c2ccccc2)c2cc(Cl)ccc2NC1=S [Example 6, (3S)-7-chloro-3-methyl-5-phenyl-3-propyl-1H-1,4-benzodiazepine-2-thione]",104,
"CC(C)[C@@H]1N=C(c2ccccc2)c2cc(-c3ccccc3)ccc2NC1=S [Example 19, (3S)-3-isopropyl-5,7-diphenyl-1,3-dihydro-1,4-benzodiazepine-2-thione]",1470,
"S=C1Nc2ccccc2C(c2ccccc2)=NC1Cc1ccc(Cl)c(Cl)c1 (stereo not shown) [Example 28, 3-[(3,4-Dichlorophenyl)methyl]-5-phenyl-1,3-dihydro-1,4-benzodiazepine-2-thione]",1670,
"CC(C)[C@@H]1N=C(c2ccccn2)c2cc(Br)ccc2NC1=S [Example 2, (3S)-7-bromo-3-propan-2-yl-5-pyridin-2-yl-1,3-dihydro-1,4-benzodiazepine-2-thione]",289,
"S=C1Nc2ccc(Cl)cc2C(c2ccccc2)=N[C@@H]1Cc1ccccc1 (single isomer, unassigned) [Example 21]",1140,
"Fc1ccccc1C1=N[C@@H](C(F)(F)F)C(=S)Nc2ccc(Cl)cc21 [Example 10, (3S)-7-chloro-5-(2-fluorophenyl)-3-(trifluoromethyl)-1,3-dihydro-1,4-benzodiazepine-2-thione]",610,
"CC(C)[C@H]1N=C(c2ccccc2F)c2cc(Cl)ccc2NC1=S [Example 34, (3R)-7-chloro-5-(2-fluorophenyl)-3-isopropyl-1,3-dihydro-1,4-benzodiazepine-2-thione]",420,

SMILES,IC50 [nM],activity at M1 receptor
"CC(C)C1N=C(c2ccccc2)c2cc(Cl)ccc2NC1=S (stereo not shown) [Example 15, 7-chloro-3-isopropyl-5-phenyl-1,3-dihydro-1,4-benzodiazepine-2-thione]",64,
"Fc1ccccc1C1=N[C@@H](c2ccccc2)C(=S)Nc2ccc(Cl)cc21 [Example 29, (3S)-7-Chloro-5-(2-fluorophenyl)-3-phenyl-1,3-dihydro-1,4-benzodiazepine-2-thione]",1470,
"S=C1Nc2ccc(Cl)cc2C(c2ccccc2)=NC1c1ccccc1 (stereo not shown) [Example 31, 7-chloro-3,5-diphenyl-1,3-dihydro-1,4-benzodiazepine-2-thione]",799,
"CC1N=C(c2ccccc2)c2cc([N+](=O)[O-])ccc2NC1=S (stereo not shown) [Example 12, 3-methyl-7-nitro-5-phenyl-1,3-dihydro-1,4-benzodiazepine-2-thione]",732,
CCC1CN(c2ccccc2)c2cc(Cl)ccc2NC1=S (stereo not shown) [Example 42],50,
"S=C1Nc2ccc(Cl)cc2C(c2ccccc2)=N[C@H]1C1CC1 [Example 24, (3S)-7-chloro-3-cyclopropyl-5-phenyl-1,3-dihydro-1,4-benzodiazepine-2-thione]",165,
"CC(C)[C@@H]1N=C(c2cccnc2)c2cc(Br)ccc2NC1=S [Example 32, (3S)-7-bromo-3-isopropyl-5-(3-pyridyl)-1,3-dihydro-1,4-benzodiazepine-2-thione]",275,
"FC(F)(F)C[C@@H]1N=C(c2ccccc2)c2cc(Cl)ccc2NC1=S [Example 8, (3S)-7-chloro-5-phenyl-3-(2,2,2-trifluoroethyl)-1,3-dihydro-1,4-benzodiazepine-2-thione]",238,
"CCC1N=C(c2ccccc2F)c2cc(N)ccc2NC1=S (stereo not shown) [Example 37, 7-amino-3-ethyl-5-(2-fluorophenyl)-1,3-dihydro-1,4-benzodiazepine-2-thione]",6060,
"CC(C)[C@@H]1N=C(c2ccccc2F)c2ccc(Cl)cc2NC1=S [Example 23, (3S)-8-chloro-5-(2-fluorophenyl)-3-isopropyl-1,3-dihydro-1,4-benzodiazepine-2-thione]",399,
"Cc1ccc2c(c1)C(c1ccccc1F)=N[C@@H](C(C)C)C(=S)N2 [Example 13, (3S)-5-(2-fluorophenyl)-3-isopropyl-7-methyl-1,3-dihydro-1,4-benzodiazepine-2-thione]",62,
"CC(C)[C@H]1N=C(c2ccccc2)c2cc(Cl)ccc2NC1=S [Example 35, (3R)-7-chloro-3-isopropyl-5-phenyl-1,3-dihydro-1,4-benzodiazepine-2-thione]",521,
"CSCC[C@@H]1N=C(c2ccccc2)c2cc(Cl)ccc2NC1=S [Example 33, (3S)-7-chloro-3-(2-methylsulfanylethyl)-5-phenyl-1,3-dihydro-1,4-benzodiazepine-2-thione]",1200,
"S=C1Nc2ccc(Cl)cc2C(c2ccccc2Cl)=NC1CC1CC1 (stereo not shown) [Example X2, 7-chloro-5-(2-chlorophenyl)-3-(cyclopropylmethyl)-1H-benzo[e][1,4]diazepine-2(3H)-thione]",,no activity
"CC(C)(O)C1N=C(c2ccccc2)c2cc(Cl)ccc2NC1=S (stereo not shown) [Example 26, 7-chloro-3-(1-hydroxy-1-methyl-ethyl)-5-phenyl-1,3-dihydro-1,4-benzodiazepine-2-thione]",1850,
"CC[C@@H]1N=C(c2ccccc2)c2cc(Cl)ccc2NC1=S [Example 4, (3S)-7-chloro-3-ethyl-5-phenyl-1,3-dihydro-1,4-benzodiazepine-2-thione]",103,
"S=C1Nc2ccc(Cl)cc2C(c2ccccc2Cl)=NC1Cc1ccccc1 (stereo not shown) [Example X1, 3-Benzyl-7-chloro-5-(2-chloro-phenyl)-1,3-dihydro-benzo[1,4]diazepine-2-thione]",,no activity
"CC(C)[C@@H]1N=C(c2ccccc2)c2cc(C(F)(F)F)ccc2NC1=S [Example 18, (3S)-3-isopropyl-5-phenyl-7-(trifluoromethyl)-1,3-dihydro-1,4-benzodiazepine-2-thione]",71,

# Same assay, conditions: CHO human M1, with EC20 of acetylcholine, FLIPR; read-out: IC50 value hM1 (converted)
row,SMILES,IC50 [nM]
1,"CCCC1=NCC(=S)Nc2ccc(Cl)cc21 [Example 17, 7-chloro-5-propyl-1,3-dihydro-1,4-benzodiazepine-2-thione]",1280
2,"CC(C)[C@@H]1N=C(C2CCCCC2)c2cc(Cl)ccc2NC1=S [Example 39, (3S)-7-chloro-5-cyclohexyl-3-isopropyl-1,3-dihydro-1,4-benzodiazepine-2-thione]",414
3,"CC(C)[C@@H]1N=C(c2ccc(F)cc2)c2cc(OC(F)(F)F)ccc2NC1=S [Example 1, (3S)-5-(4-fluorophenyl)-3-isopropyl-7-(trifluoromethoxy)-1,3-dihydro-1,4-benzodiazepine-2-thione]",312
